Source: patent US8383822B2, “Substituted oxazolidinones and their use” (Bayer Intellectual Property GmbH, priority 2007, dated 2013)

Tests used:
factor Xa = target: T1, factor Xa (Homo sapiens, UniProt P00742); experiment: biochemical; settings: factor Xa inhibition in citrate plasma (Octapharma), factor X activated by Russel viper venom, ChromozymX substrate, read at about 12 min
T1 construct: tissue Octapharma; host or cells: citrate plasma
Method: a.4) Determination of the Factor Xa-inhibitory Activity of the Potential Inhibitors in Plasma Samples
To determine the inhibition of factor Xa in plasma samples, the factor X present in plasma is activated by a protease from rattlesnake toxin. The factor Xa activity or its inhibition by potential inhibitors is then measured by addition of a chromogenic substrate.
Various concentrations of the substances to be tested are dissolved in dimethyl sulphoxide and mixed with an aqueous refludan solution (10 μg/ml). In clear 96-well plates having a flat bottom, 30 μl of citrate plasma (Octapharma) are mixed with 10 μl of the substance dilution.

thrombin = thrombin (Homo sapiens, UniProt P00734); experiment: Thrombin-inhibitory activity in plasma samples (ecarin, fluorogenic thrombin substrate); type: biochemical; settings: thrombin inhibition in citrate plasma (Octapharma), ecarin-stimulated, read at about 12 min
Method: a.5) Determination of the Thrombin-inhibitory Activity of the Potential Inhibitors in Plasma Samples
Various concentrations of the substances to be tested are dissolved in dimethyl sulphoxide and diluted with water.

T1 sequence (P00742 235-488 limits assumed): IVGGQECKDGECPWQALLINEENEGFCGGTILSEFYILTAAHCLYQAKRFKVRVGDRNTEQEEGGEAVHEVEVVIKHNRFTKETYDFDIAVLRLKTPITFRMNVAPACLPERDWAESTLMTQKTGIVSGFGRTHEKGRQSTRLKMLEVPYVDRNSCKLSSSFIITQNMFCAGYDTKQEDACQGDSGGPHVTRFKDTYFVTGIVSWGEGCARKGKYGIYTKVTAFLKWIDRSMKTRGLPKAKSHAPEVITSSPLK
T1 sequence (P00742 41-179 limits assumed): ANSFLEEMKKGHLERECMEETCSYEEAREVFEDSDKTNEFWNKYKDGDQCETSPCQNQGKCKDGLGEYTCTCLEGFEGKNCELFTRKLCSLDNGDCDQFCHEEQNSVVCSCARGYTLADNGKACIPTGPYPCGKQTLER

COCc1cc(N2C[C@H](CNC(=O)c3ccc(Cl)s3)OC2=O)ccc1-n1cccc(CCNCCCO)c1=O [Example 16]
IC50 (factor Xa): 18 nM | IC50 (thrombin): 10 nM

COCc1cc(N2C[C@H](CNC(=O)c3ccc(Cl)s3)OC2=O)ccc1-n1cccc(CCN[C@H]2CC[C@H](O)CC2)c1=O [Example 10, 5-Chloro-N-{[(5S)-3-{4-[3-{2-[(trans-4-hydroxycyclohexyl)amino]ethyl}-2-oxopyridin-1(2H)-yl]-3-(methoxymethyl)phenyl}-2-oxo-1,3-oxazolidin-5-yl]methyl}thiophene-2-carboxamide]
IC50 (factor Xa): 15 nM | IC50 (thrombin): 24 nM

Cc1cc(N2C[C@H](CNC(=O)c3ccc(Cl)s3)OC2=O)cc(C)c1-n1cccc(CCNCCO)c1=O [Example 37, 5-Chloro-N-{[(5S)-3-{4-[3-{2-[(2-hydroxyethyl)amino]ethyl}-2-oxopyridin-1(2H)-yl]-3,5-dimethylphenyl}-2-oxo-1,3-oxazolidin-5-yl]methyl}thiophene-2-carboxamide]
IC50 (factor Xa): 29 nM | IC50 (thrombin): 15 nM

COCc1cc(N2C[C@H](CNC(=O)c3ccc(Cl)s3)OC2=O)ccc1-n1cccc(CCNCCO)c1=O [Example 9, 5-Chloro-N-{[(5S)-3-{4-[3-{2-[(2-hydroxyethyl)amino]ethyl}-2-oxopyridin-1(2H)-yl]-3-(methoxy-methyl)phenyl}-2-oxo-1,3-oxazolidin-5-yl]methyl}thiophene-2-carboxamide]
IC50 (factor Xa): 11 nM | IC50 (thrombin): 10 nM

COc1cc(N2C[C@H](CNC(=O)c3ccc(Cl)s3)OC2=O)ccc1-n1cccc(CCN[C@H]2CC[C@H](O)CC2)c1=O [Example 6, 5-Chloro-N-{[(5S)-3-{4-[3-{2-[(trans-4-hydroxycyclohexyl)amino]ethyl}-2-oxopyridin-1(2H)-yl]-3-methoxyphenyl}-2-oxo-1,3-oxazolidin-5-yl]methyl}thiophene-2-carboxamide]
IC50 (factor Xa): 31 nM | IC50 (thrombin): 143 nM

CCCc1cc(N2C[C@H](CNC(=O)c3ccc(Cl)s3)OC2=O)ccc1-n1cccc(OCCNCCO)c1=O [Example 36, 5-Chloro-N-{[(5S)-3-{4-[3-{2-[(2-hydroxyethyl)amino]ethoxy}-2-oxopyridin-1(2H)-yl]-3-propyl-phenyl}-2-oxo-1,3-oxazolidin-5-yl]methyl}thiophene-2-carboxamide]
IC50 (factor Xa): 29 nM | IC50 (thrombin): 36 nM

COCc1cc(N2C[C@H](CNC(=O)c3ccc(Cl)s3)OC2=O)ccc1-n1cccc(CCN2CCN(C)CC2)c1=O [Example 13]
IC50 (factor Xa): 17 nM | IC50 (thrombin): 16 nM

Cc1cc(N2C[C@H](CNC(=O)c3ccc(Cl)s3)OC2=O)ccc1-n1cccc(OCCN[C@H]2CC[C@H](O)CC2)c1=O [Example 21, 5-Chloro-N-{[(5S)-3-{4-[3-{2-[(trans-4-hydroxycyclohexyl)amino]ethoxy}-2-oxopyridin-1(2H)-yl]-3-methylphenyl}-2-oxo-1,3-oxazolidin-5-yl]methyl}thiophene-2-carboxamide]
IC50 (factor Xa): 11 nM | IC50 (thrombin): 34 nM
